Experimental data: publication PMC9551036, “A selective and orally bioavailable VHL-recruiting PROTAC achieves SMARCA2 degradation in vivo” (Nature Communications, 2022)
≈ marks a conversion by molar mass, not a printed value. Where “and” joins values, the source holds several entries; their conditions need not be identical. Equal values may be shown once. Read-outs that look alike come from different tables or passages of the source.

Experiments:
[1] = Solubility testing; format: physicochemical; conditions: for solubility at 24 h: buffer, kinetic from dmso stock
Description: Dilution into a 1:1 mixture of acetonitrile and water was used as reference. After 24 h, the incubations were filtrated, and the filtrate was analyzed by LC-UV.

[2] = target: VCB: PROTAC: SMARCA4^BD ternary complex (Homo sapiens, UniProt P40337+P51532); test: SPR ternary complex measurement, VCB immobilised, 10 µM SMARCA4^BD present; format: binding; parameters: P51532, residues 1448–1569 with additional N-terminal SM residues; His6 (TEV site) (N, cleaved yes); GST (TEV site) (N, cleaved yes); made in house; host or cells: SMARCA4^BD: Escherichia coli BL21(DE3); conditions: for Kd: SPR; for alpha: cooperativity, SMARCA4, ratio of KD values measured in the same run
Summary of the method: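 Biotinylated VCB immobilised on a CM5 chip; ternary binding run at 6 °C in 20 mM Tris pH 8.3, 150 mM KCl, 2 mM MgCl2, 2 mM TCEP, 0.005% Tween 20, 1% DMSO. Dual-inject mode with 10 µM SMARCA bromodomain present during injection and dissociation. Kinetics/affinity from global 1:1 fit with mass-transport term.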

[3] = target: SMARCA2 (Homo sapiens, UniProt P51531); test: SMARCA2 capillary electrophoresis protein assay in other cell lines (A549, NCI-H1568, HCT116, LU99, HCC-364, HCT-15, HCC4006, SK-N-AS); format: cell-based; parameters: endogenous in cells; host or cells: RKO, NCI-H1568, A549, HCT116, LU99, HCC-364, HCT-15, HCC4006, SK-N-AS
Summary of the method: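 Cells were treated with compound for 4 or 18 h. Half-life was followed with 50 µg/ml cycloheximide for 1–24 h, and re-synthesis with 100 nM compound 6 for 4 h, then VHL binder at 25 or 50 µM for 3 or 24 h. SMARCA2/4 was quantified by Wes capillary immunoassay, normalised to GAPDH, with 4-parameter logistic fits.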

[4] = Plasma protein binding; format: in vitro ADME; conditions: for fraction unbound at 5 h, 3 µmol/L: bovine, read-out: PPB fu 10% Calf; for PPB fu 10% Calf / fraction unbound at 5 h, 3 µmol/L: 10% calf
[5] = ternary complex with SMARCA4BD, mean ± SD
[6] = NCI-H1568 (4 h), mean ± SD, read-out: SMARCA2 DC50
[7] = NCI-H1568, 4h, individual replicates, read-out: NCI-H1568 (4h) SMARCA2 DC50

Chain of VCB: PROTAC: SMARCA4^BD ternary complex (P40337 54-213): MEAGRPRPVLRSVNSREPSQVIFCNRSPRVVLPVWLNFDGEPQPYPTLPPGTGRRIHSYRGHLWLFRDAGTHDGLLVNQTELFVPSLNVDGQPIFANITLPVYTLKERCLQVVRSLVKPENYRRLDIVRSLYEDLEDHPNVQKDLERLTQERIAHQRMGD
Chain of VCB: PROTAC: SMARCA4^BD ternary complex (Q15369 17-112 partner limits assumed): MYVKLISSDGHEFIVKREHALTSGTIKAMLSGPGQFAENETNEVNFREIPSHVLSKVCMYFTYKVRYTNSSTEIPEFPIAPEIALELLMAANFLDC
Chain of VCB: PROTAC: SMARCA4^BD ternary complex (Q15370 1-104 partner limits assumed): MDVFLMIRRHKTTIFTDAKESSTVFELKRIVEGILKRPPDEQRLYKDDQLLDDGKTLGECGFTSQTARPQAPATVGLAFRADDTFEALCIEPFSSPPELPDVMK
Chain of VCB: PROTAC: SMARCA4^BD ternary complex (P51532 1448-1569): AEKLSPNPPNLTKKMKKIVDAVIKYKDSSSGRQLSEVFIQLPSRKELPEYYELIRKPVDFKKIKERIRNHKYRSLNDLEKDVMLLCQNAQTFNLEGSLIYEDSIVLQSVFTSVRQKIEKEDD
Chain of SMARCA2 (P51531 whole entry): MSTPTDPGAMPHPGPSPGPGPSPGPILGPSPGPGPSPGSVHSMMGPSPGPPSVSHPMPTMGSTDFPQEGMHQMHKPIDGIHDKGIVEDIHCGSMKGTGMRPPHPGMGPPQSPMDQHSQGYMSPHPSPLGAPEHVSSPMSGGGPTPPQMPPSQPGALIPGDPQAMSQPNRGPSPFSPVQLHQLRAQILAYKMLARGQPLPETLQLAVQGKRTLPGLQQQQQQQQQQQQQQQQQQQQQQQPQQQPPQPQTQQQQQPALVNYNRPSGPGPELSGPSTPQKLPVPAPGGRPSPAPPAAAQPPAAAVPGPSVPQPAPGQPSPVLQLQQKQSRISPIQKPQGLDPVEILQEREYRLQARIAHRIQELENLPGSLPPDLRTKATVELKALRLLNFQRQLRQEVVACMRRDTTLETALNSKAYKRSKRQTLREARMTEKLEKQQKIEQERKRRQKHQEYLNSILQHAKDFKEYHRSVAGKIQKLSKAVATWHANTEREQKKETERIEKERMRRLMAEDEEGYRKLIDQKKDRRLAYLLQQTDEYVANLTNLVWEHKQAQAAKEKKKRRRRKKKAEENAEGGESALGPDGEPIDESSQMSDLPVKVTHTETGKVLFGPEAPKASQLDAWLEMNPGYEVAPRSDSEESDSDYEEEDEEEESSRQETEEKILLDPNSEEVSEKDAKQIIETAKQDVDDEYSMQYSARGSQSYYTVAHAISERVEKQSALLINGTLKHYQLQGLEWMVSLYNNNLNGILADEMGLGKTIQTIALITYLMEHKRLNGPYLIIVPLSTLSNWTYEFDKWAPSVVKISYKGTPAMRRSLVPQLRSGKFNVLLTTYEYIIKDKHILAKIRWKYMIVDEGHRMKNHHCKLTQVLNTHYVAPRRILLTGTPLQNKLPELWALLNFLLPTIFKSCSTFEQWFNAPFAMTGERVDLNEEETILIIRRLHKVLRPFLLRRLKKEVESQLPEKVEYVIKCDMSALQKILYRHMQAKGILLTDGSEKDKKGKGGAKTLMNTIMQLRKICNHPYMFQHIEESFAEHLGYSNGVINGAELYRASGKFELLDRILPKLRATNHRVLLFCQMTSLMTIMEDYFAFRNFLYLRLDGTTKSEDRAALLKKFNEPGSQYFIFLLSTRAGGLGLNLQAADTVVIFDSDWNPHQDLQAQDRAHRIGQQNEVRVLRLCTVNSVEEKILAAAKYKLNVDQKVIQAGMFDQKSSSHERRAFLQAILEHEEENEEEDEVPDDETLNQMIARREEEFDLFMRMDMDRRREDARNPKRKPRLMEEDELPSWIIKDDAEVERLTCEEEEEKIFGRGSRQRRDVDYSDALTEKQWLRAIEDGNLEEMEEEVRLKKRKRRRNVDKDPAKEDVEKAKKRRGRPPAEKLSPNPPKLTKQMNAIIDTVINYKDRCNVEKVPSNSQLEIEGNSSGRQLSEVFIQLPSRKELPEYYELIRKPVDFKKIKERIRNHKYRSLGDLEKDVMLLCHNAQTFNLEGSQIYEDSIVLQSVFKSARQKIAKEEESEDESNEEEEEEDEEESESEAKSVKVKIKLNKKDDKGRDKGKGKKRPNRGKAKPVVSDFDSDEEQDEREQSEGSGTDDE

Compound | Solubility pH 6.8 ([1]; pH 6.8) | Kd [2, 5] [nM] | Kd ([2]; ternary, individual replicates) | alpha [2] | SMARCA2 Dmax ([3]; NCI-H1568 (4 h), mean ± SD) [%] | DC50 [3, 6] [nM] | DC50 [3, 7] | PPB fu 10% Calf [4] | PPB fu 10% Calf ([4]; fraction unbound) [%] | PPB fu 10% Human ([4]; 10% human) [%] | PPB fu 10% Mouse ([4]; 10% mouse) [%] | PPB fu 10% Rat ([4]; 10% rat) [%] | PPB fu Human ([4]; human, fraction unbound) [%] | PPB fu Mouse ([4]; mouse, fraction unbound) [%] | PPB fu Rat ([4]; rat, fraction unbound) [%] | solubility at 24 h ([1]; pH 4.5, aqueous buffer, pH 4.5, read-out: Solubility pH 4.5) [µg/mL] | solubility at 24 h ([1]; pH 6.8, aqueous buffer, pH 6.8, read-out: Solubility pH 6.8) [µg/mL] | Dmax ([3]; NCI-H1568 (4 h), mean ± SD) [%] | fraction unbound at 5 h, 3 µmol/L ([4]; 10% calf plasma dilution in PBS, fraction unbound) | fraction unbound at 5 h, 3 µmol/L ([4]; 10% plasma (plasma dilution in PBS))
Cc1ncsc1-c1ccc([C@H](COC(C)(C)CN2CCC(c3ccc4c(c3)n(C3CCCC3)c3nc(=O)c5c(Br)cccc5n43)CC2)NC(=O)[C@@H]2C[C@@H](O)CN2C(=O)[C@@H](NC(=O)C2(F)CC2)C(C)(C)C)cc1 [compound 28] | <1.000 <1.000 <1.000 <1.000 <1.000 ug/mL | 73 ± 13 | 63.4 nM and 67.4 nM and 86.9 nM | 0.8 | 94 ± 6 | 18 ± 13 | 6.62 nM and 28.2 nM and 30.1 nM | 1.857% and 2.316% | 2 ± 0.3 | <0.224 | <0.219 | <0.231 | <0.2 | <0.2 | <0.2 | – | – | – | – | –
Cc1ncsc1-c1ccc([C@H](COC(C)CN2CCC(c3ccc4c(c3)n(C3CCCC3)c3nc(=O)c5c(Br)cccc5n43)CC2)NC(=O)[C@@H]2C[C@@H](O)CN2C(=O)[C@@H](NC(=O)C2(F)CC2)C(C)(C)C)cc1 (some centres unmarked) [compound 9] | – | 180 ± 13 | 171 nM and 174 nM and 195 nM | 0.2 | – | 32 ± 17 | 54.9 nM and 24.6 nM and 25.2 nM | 8.695% | – | – | – | – | – | – | – | 14 (≈ 13.3 µM) | < 1 | 92 ± 8 | 0.07 ± 0.02 | 0.0538
